11 compounds from PubChem BioAssay (NCI) can be followed below.

Assay in all cases: NCI-60 cell line screen, 48 h
Experiment [1] has as its system HOP-92 NSCLC.
Experiment [2] relates to EKVX NSCLC.
Experiment [3] has as its system NCI-H23 lung.
The subject of experiment [4] is SF-295 CNS.
Experiment [5] concerns MDA-MB-231 breast.
Experiment [6] concerns SW-620 colon.
For experiment [7], the system named is SK-MEL-28 melanoma.
Experiment [8] has as its system MCF7 breast.
In experiment [9] the test system is M14 melanoma.
In experiment [10] the test system is HL-60(TB) leukemia.

Where “and” joins values, the source holds several entries; their conditions need not be identical. Equal values may be shown once.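 Interpolation was linear, between the two tested concentrations surrounding the appropriate level; five concentrations were tested over 48 hours in 96-well plates. Here, GI50 denotes the concentration required for 50% inhibition of growth. TGI denotes the concentration required for complete inhibition of growth.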

Consider `CC(=O)OCC(=O)O[C@@H]1C[C@]2(C(C)C)O[C@@]1(C)[C@@H]1CC[C@@H](C)[C@H]1[C@@H]2OC(=O)/C=C/c1ccccc1`, for which the GI50 in experiment [1] is 8.81 µM; in experiment [2] it was 13.8 µM; in experiment [3], 23.7 µM; in experiment [4], 17 µM; in [5], 14 µM; in [6], 31 µM. Besides, the GI50 is 22.3 µM in experiment [7], 22.6 µM in [8], 26.3 µM in [9] and 15 µM in experiment [10]. The TGI in experiment [1] was 22.9 µM; in [2] it was 59.1 µM; in [3] it was 99.1 µM; in experiment [4] it was 43.9 µM; in experiment [5], 33.4 µM; in experiment [6], greater than 100 µM. Further, the TGI was 83.4 µM in [7], greater than 100 µM in [8], greater than 100 µM in [9] and 62 µM in [10].
For `CN(N=O)C(=O)N[C@@H](C=O)[C@@H](O)[C@H](O)[C@H](O)CO`, the GI50 in experiment [1], in [2], in experiment [3], in experiment [4], in experiment [6] and in [7] was greater than 750 µM each time. For the same compound, the GI50 in experiment [10] is greater than 750 µM. Besides, the TGI in [1] is 621 µM and > 750 µM; in experiment [2], greater than 750 µM; in experiment [3] it was greater than 750 µM; in [4], 621 µM and > 750 µM; in experiment [5], greater than 750 µM; in experiment [6], 590 µM and > 750 µM. Moreover, the TGI in experiment [7] is greater than 750 µM; in experiment [8], greater than 633 µM; in experiment [9] it was greater than 750 µM; in [10], greater than 750 µM.
For `COC(=O)[C@]12CC[C@@H](C)[C@H](C)[C@@H]1C1=CC[C@@H]3[C@@]4(C)C(C=O)=C[C@@](C)(COC(=O)c5ccco5)[C@@H]4C(=O)C[C@@]3(C)[C@]1(C)CC2`, the GI50 is 1.37 µM in [1]; 4.64 µM in experiment [2]; 4.33 µM in [3]; 3.99 µM in experiment [4]; 4.97 µM in [5]; 4.9 µM in experiment [6]. Further, the GI50 in experiment [7] was 0.0524 µM; in [8], 4.07 µM; in [9] it was 0.286 µM; in experiment [10], 3.58 µM. The TGI in experiment [1] was 91 µM; in [2], greater than 100 µM; in experiment [3], greater than 100 µM; in [4], greater than 100 µM; in experiment [5], greater than 100 µM; in [6] it was greater than 100 µM. Also, the TGI is greater than 100 µM in [7], 44.2 µM in experiment [8], greater than 100 µM in experiment [9] and 15.4 µM in experiment [10].
In the case of `CN1CCN(Cc2ccc(NC(=O)c3cncc(C#Cc4cncc5ncccc45)c3)cc2C(F)(F)F)CC1`, the GI50 was 1.16 µM in experiment [1]; 3.91 µM in experiment [2]; 1.54 µM in experiment [3]; 3.72 µM in experiment [4]; 1.07 µM in experiment [5]; 1.83 µM in experiment [6]. Besides, the GI50 in experiment [7] was 1.23 µM; in experiment [8], 3.28 µM; in [9] it was 0.961 µM; in [10], 0.303 µM. Besides, the TGI in experiment [1] came out at 4.92 µM; in experiment [2] it was 16.8 µM; in experiment [3] it was 12.2 µM; in [4], 15.8 µM; in [5], 3.05 µM; in [6], 10.4 µM. Besides, the TGI in experiment [7] is 10.7 µM; in [8], 15.7 µM; in [9], 5.09 µM; in experiment [10] it was 2.02 µM.
In the case of `Cn1c(O)c(C(/C=C/c2ccccc2)=NCCN=C(/C=C/c2ccccc2)c2c(O)n(C)c(=O)n(C)c2=O)c(=O)n(C)c1=O`, the GI50 in experiment [1] is 12 µM; in [2], 25.8 µM; in experiment [3], 15 µM; in experiment [4], 16.2 µM; in [5], 20.9 µM; in experiment [6] it was 15.5 µM. For the same compound, the GI50 is 10.2 µM in experiment [7], 15.9 µM in experiment [8], 15 µM in experiment [9] and 9.14 µM in experiment [10]. Also, the TGI in experiment [1] was 32.5 µM; in experiment [2] it was greater than 50 µM; in [3] it was greater than 50 µM; in [4], greater than 50 µM; in [5], greater than 50 µM; in experiment [6], 34.2 µM. Also, the TGI in experiment [7] is 33.6 µM; in [8] it was greater than 50 µM; in experiment [9], greater than 50 µM; in experiment [10], 27.4 µM.
Consider `Cc1ccc(C)c(NC(=O)NCc2ccc(Cl)cc2)c1`, for which the TGI is 63.5 µM in [1]; greater than 100 µM in experiment [2]; greater than 100 µM in experiment [3]; greater than 100 µM in [4]; greater than 92 µM in [5]; greater than 100 µM in [6]. The TGI in experiment [7], in experiment [8], in [9] and in [10] was greater than 100 µM each time.
For `Cc1cnc(/C=N\NC(N)=S)c2cccc(N)c12`, the GI50 was 2.07 µM in experiment [1]; 3.15 µM in experiment [2]; 2.14 µM in experiment [3]; 2.36 µM in experiment [4]; 3.2 µM in experiment [5]; 3.78 µM in experiment [6]. Besides, the GI50 in experiment [8] was 1.5 µM; in experiment [9] it was 1.83 µM and 0.384 µM; in experiment [10], 0.752 µM. Also, the TGI in [1] is greater than 100 µM; in experiment [2], > 100 µM and 53.6 µM; in [3], greater than 100 µM; in [4], greater than 100 µM; in experiment [5], greater than 100 µM; in [6] it was greater than 100 µM. For the same compound, the TGI is greater than 100 µM in experiment [7]; greater than 100 µM in experiment [8]; 4.41 µM and 1.75 µM in experiment [9]; 3.18 µM and 2.83 µM in [10].
Take `N#Cc1ccc(N2Cc3ccccc3OC3=C2C(=O)c2c(O)ccc(O)c2C3=O)cc1`: the GI50 in experiment [1] was 0.163 µM; in [2], 0.818 µM; in [3], 1.32 µM; in experiment [4], 2.12 µM; in [5] it was 0.242 µM; in experiment [6], 0.0906 µM. Besides, the GI50 in experiment [7] was 0.216 µM; in experiment [8], 0.329 µM; in experiment [9] it was 0.209 µM; in experiment [10], 0.13 µM. Moreover, the TGI stood at 0.409 µM in experiment [1]; 4.17 µM in experiment [2]; 4.2 µM in experiment [3]; 6.96 µM in experiment [4]; 0.994 µM in [5]; 0.306 µM in experiment [6]. Further, the TGI in [7] stood at 0.62 µM; in [8] it was 2.66 µM; in experiment [9], 0.496 µM; in experiment [10] it was 0.821 µM.
With `CCOC(=O)/C=C/c1cc2cc(-c3csc4ccccc34)ccc2[nH]1`, the GI50 was 10.7 µM in [1]; 7.36 µM in [2]; 18.3 µM in experiment [3]; 4.11 µM in experiment [4]; 5.26 µM in experiment [5]; 3.54 µM in experiment [6]. Moreover, the GI50 was 10.1 µM in experiment [7], 3.34 µM in experiment [8], 5.42 µM in experiment [9] and 2.43 µM in experiment [10]. For the same compound, the TGI in [1] was 29.5 µM; in [2], 20.2 µM; in experiment [3], 47.8 µM; in [4], 16 µM; in experiment [5] it was 18.2 µM; in experiment [6], 14.1 µM. For the same compound, the TGI was 21.6 µM in experiment [7], 15.3 µM in experiment [8], 22.8 µM in experiment [9] and 6.57 µM in [10].
Take `CC(=O)c1cc2c(cc1Nc1c3ccccc3nc3occ(Cl)c13)OCO2`: the GI50 was 12.7 µM in experiment [1]; 0.181 µM in [2]; 0.238 µM in [3]; 0.0402 µM in experiment [4]; 0.283 µM in experiment [5]; 0.0344 µM in experiment [6]. The GI50 was 0.541 µM in experiment [7], 0.0939 µM in experiment [8], 0.316 µM in [9] and 0.0647 µM in experiment [10]. Also, the TGI in experiment [1] was greater than 100 µM; in experiment [2], greater than 100 µM; in experiment [3], 2.23 µM; in experiment [4], 0.188 µM; in experiment [5] it was 0.613 µM; in experiment [6], greater than 100 µM. Also, the TGI is greater than 100 µM in experiment [7], greater than 100 µM in [8], 37.9 µM in experiment [9] and 0.57 µM in [10].
On to `O=C(Nc1ccc(Cl)cc1F)c1cc(I)ccc1O`, for which the GI50 is 0.171 µM in experiment [1]; 1.62 µM in experiment [2]; 1.78 µM in experiment [3]; 1.89 µM in experiment [4]; 1.67 µM in experiment [5]; 2.44 µM in experiment [6]. For the same compound, the GI50 in experiment [7] was 0.487 µM; in [8], 2.38 µM; in [9], 0.711 µM; in experiment [10] it was 1.66 µM. The TGI in [1] turned out to be 0.679 µM; in [2], 8.8 µM; in experiment [3], 6.59 µM; in experiment [4], 3.75 µM; in experiment [5] it was 7.49 µM; in experiment [6], 13.6 µM. Besides, the TGI in [7] is 3.38 µM; in [8], 18.5 µM; in [9], 5.57 µM; in experiment [10], 6.87 µM.
